± gives the expanded uncertainty stated by the source.
Assay: xn = mol fraction of the nth substance listed
Conditions: 101 kPa, Liquid; for speed of sound: Pulse-echo method; for mass density: Vibrating tube method

COC(C)(C)C [2-methoxy-2-methylpropane] + CCCCCCCC
speed of sound (288.15 K, x1 = 0.0681): 1205.4 ± 1.3 m/s | speed of sound (288.15 K, x1 = 0.1226): 1198.4 ± 1.2 m/s | speed of sound (288.15 K, x1 = 0.2056): 1187.6 ± 1.2 m/s | speed of sound (288.15 K, x1 = 0.3046): 1174.2 ± 1.2 m/s | speed of sound (288.15 K, x1 = 0.4001): 1161.4 ± 1.2 m/s | speed of sound (288.15 K, x1 = 0.4535): 1154.3 ± 1.2 m/s | speed of sound (288.15 K, x1 = 0.4947): 1148.7 ± 1.2 m/s | speed of sound (288.15 K, x1 = 0.5442): 1142 ± 1.2 m/s | speed of sound (288.15 K, x1 = 0.5996): 1134.7 ± 1.2 m/s | speed of sound (288.15 K, x1 = 0.6916): 1122.5 ± 1.2 m/s | speed of sound (288.15 K, x1 = 0.8001): 1108.1 ± 1.2 m/s | speed of sound (288.15 K, x1 = 0.9007): 1095.1 ± 1.2 m/s | speed of sound (288.15 K, x1 = 0.9487): 1089 ± 1.2 m/s | mass density (288.15 K, x1 = 0.0681): 708.15 ± 0.19 kg/m3 | mass density (288.15 K, x1 = 0.1226): 709.47 ± 0.18 kg/m3 | mass density (288.15 K, x1 = 0.2056): 711.65 ± 0.18 kg/m3 | mass density (288.15 K, x1 = 0.3046): 714.48 ± 0.18 kg/m3 | mass density (288.15 K, x1 = 0.4001): 717.54 ± 0.18 kg/m3 | mass density (288.15 K, x1 = 0.4535): 719.37 ± 0.18 kg/m3 | mass density (288.15 K, x1 = 0.4947): 720.85 ± 0.18 kg/m3 | mass density (288.15 K, x1 = 0.5442): 722.73 ± 0.17 kg/m3 | mass density (288.15 K, x1 = 0.5996): 724.94 ± 0.17 kg/m3 | mass density (288.15 K, x1 = 0.6916): 728.91 ± 0.17 kg/m3 | mass density (288.15 K, x1 = 0.8001): 734.16 ± 0.17 kg/m3 | mass density (288.15 K, x1 = 0.9007): 739.68 ± 0.17 kg/m3 | mass density (288.15 K, x1 = 0.9487): 742.54 ± 0.17 kg/m3 | speed of sound (293.15 K, x1 = 0.0681): 1184.6 ± 1.2 m/s | speed of sound (293.15 K, x1 = 0.1226): 1177.6 ± 1.2 m/s | speed of sound (293.15 K, x1 = 0.2056): 1166.7 ± 1.2 m/s | speed of sound (293.15 K, x1 = 0.3046): 1153.1 ± 1.2 m/s | speed of sound (293.15 K, x1 = 0.4001): 1140.2 ± 1.2 m/s | speed of sound (293.15 K, x1 = 0.4535): 1132.9 ± 1.2 m/s | speed of sound (293.15 K, x1 = 0.4947): 1127.2 ± 1.2 m/s | speed of sound (293.15 K, x1 = 0.5442): 1120.6 ± 1.2 m/s | speed of sound (293.15 K, x1 = 0.5996): 1113 ± 1.2 m/s | speed of sound (293.15 K, x1 = 0.6916): 1100.6 ± 1.2 m/s | speed of sound (293.15 K, x1 = 0.8001): 1085.8 ± 1.2 m/s | speed of sound (293.15 K, x1 = 0.9007): 1072.6 ± 1.2 m/s | speed of sound (293.15 K, x1 = 0.9487): 1066.2 ± 1.2 m/s | mass density (293.15 K, x1 = 0.0681): 704.08 ± 0.19 kg/m3 | mass density (293.15 K, x1 = 0.1226): 705.36 ± 0.19 kg/m3 | mass density (293.15 K, x1 = 0.2056): 707.48 ± 0.18 kg/m3 | mass density (293.15 K, x1 = 0.3046): 710.23 ± 0.18 kg/m3 | mass density (293.15 K, x1 = 0.4001): 713.19 ± 0.18 kg/m3 | mass density (293.15 K, x1 = 0.4535): 714.96 ± 0.18 kg/m3 | mass density (293.15 K, x1 = 0.4947): 716.4 ± 0.18 kg/m3 | mass density (293.15 K, x1 = 0.5442): 718.21 ± 0.18 kg/m3 | mass density (293.15 K, x1 = 0.5996): 720.36 ± 0.17 kg/m3 | mass density (293.15 K, x1 = 0.6916): 724.2 ± 0.17 kg/m3 | mass density (293.15 K, x1 = 0.8001): 729.3 ± 0.17 kg/m3 | mass density (293.15 K, x1 = 0.9007): 734.66 ± 0.17 kg/m3 | mass density (293.15 K, x1 = 0.9487): 737.44 ± 0.24 kg/m3 | speed of sound (298.15 K, x1 = 0.0681): 1163.5 ± 1.2 m/s | speed of sound (298.15 K, x1 = 0.1226): 1156.3 ± 1.2 m/s | speed of sound (298.15 K, x1 = 0.2056): 1145.4 ± 1.2 m/s | speed of sound (298.15 K, x1 = 0.3046): 1131.8 ± 1.2 m/s | speed of sound (298.15 K, x1 = 0.4001): 1118.7 ± 1.2 m/s | speed of sound (298.15 K, x1 = 0.4535): 1111.2 ± 1.2 m/s | speed of sound (298.15 K, x1 = 0.4947): 1105.4 ± 1.2 m/s | speed of sound (298.15 K, x1 = 0.5442): 1098.7 ± 1.2 m/s | speed of sound (298.15 K, x1 = 0.5996): 1091 ± 1.2 m/s | speed of sound (298.15 K, x1 = 0.6916): 1078.4 ± 1.2 m/s | speed of sound (298.15 K, x1 = 0.8001): 1063.2 ± 1.2 m/s | speed of sound (298.15 K, x1 = 0.9007): 1049.6 ± 1.2 m/s | speed of sound (298.15 K, x1 = 0.9487): 1043.1 ± 1.2 m/s | mass density (298.15 K, x1 = 0.0681): 700.01 ± 0.19 kg/m3 | mass density (298.15 K, x1 = 0.1226): 701.24 ± 0.19 kg/m3 | mass density (298.15 K, x1 = 0.2056): 703.29 ± 0.18 kg/m3 | mass density (298.15 K, x1 = 0.3046): 705.96 ± 0.18 kg/m3 | mass density (298.15 K, x1 = 0.4001): 708.81 ± 0.18 kg/m3 | mass density (298.15 K, x1 = 0.4535): 710.53 ± 0.18 kg/m3 | mass density (298.15 K, x1 = 0.4947): 711.92 ± 0.18 kg/m3 | mass density (298.15 K, x1 = 0.5442): 713.67 ± 0.18 kg/m3 | mass density (298.15 K, x1 = 0.5996): 715.75 ± 0.18 kg/m3 | mass density (298.15 K, x1 = 0.6916): 719.47 ± 0.17 kg/m3 | mass density (298.15 K, x1 = 0.8001): 724.41 ± 0.17 kg/m3 | mass density (298.15 K, x1 = 0.9007): 729.6 ± 0.17 kg/m3 | speed of sound (303.15 K, x1 = 0.0681): 1142.6 ± 1.2 m/s | speed of sound (303.15 K, x1 = 0.1226): 1135.4 ± 1.2 m/s | speed of sound (303.15 K, x1 = 0.2056): 1124.3 ± 1.2 m/s | speed of sound (303.15 K, x1 = 0.3046): 1110.5 ± 1.2 m/s | speed of sound (303.15 K, x1 = 0.4001): 1097.1 ± 1.2 m/s | speed of sound (303.15 K, x1 = 0.4535): 1089.6 ± 1.2 m/s | speed of sound (303.15 K, x1 = 0.4947): 1083.8 ± 1.2 m/s | speed of sound (303.15 K, x1 = 0.5442): 1077 ± 1.2 m/s | speed of sound (303.15 K, x1 = 0.5996): 1069.1 ± 1.2 m/s | speed of sound (303.15 K, x1 = 0.6916): 1056.2 ± 1.2 m/s | speed of sound (303.15 K, x1 = 0.8001): 1040.8 ± 1.2 m/s | speed of sound (303.15 K, x1 = 0.9007): 1026.9 ± 1.2 m/s | speed of sound (303.15 K, x1 = 0.9487): 1020.1 ± 1.1 m/s | mass density (303.15 K, x1 = 0.0681): 695.91 ± 0.19 kg/m3 | mass density (303.15 K, x1 = 0.1226): 697.1 ± 0.19 kg/m3 | mass density (303.15 K, x1 = 0.2056): 699.07 ± 0.19 kg/m3 | mass density (303.15 K, x1 = 0.3046): 701.64 ± 0.18 kg/m3 | mass density (303.15 K, x1 = 0.4001): 704.4 ± 0.18 kg/m3 | mass density (303.15 K, x1 = 0.4535): 706.06 ± 0.18 kg/m3 | mass density (303.15 K, x1 = 0.4947): 707.4 ± 0.18 kg/m3 | mass density (303.15 K, x1 = 0.5442): 709.09 ± 0.18 kg/m3 | mass density (303.15 K, x1 = 0.5996): 711.1 ± 0.18 kg/m3 | mass density (303.15 K, x1 = 0.6916): 714.7 ± 0.17 kg/m3 | mass density (303.15 K, x1 = 0.8001): 719.47 ± 0.17 kg/m3 | mass density (303.15 K, x1 = 0.9007): 724.5 ± 0.17 kg/m3 | mass density (303.15 K, x1 = 0.9487): 727.1 ± 0.19 kg/m3 | speed of sound (308.15 K, x1 = 0.0681): 1121.8 ± 1.2 m/s | speed of sound (308.15 K, x1 = 0.1226): 1114.7 ± 1.2 m/s | speed of sound (308.15 K, x1 = 0.2056): 1103.4 ± 1.2 m/s | speed of sound (308.15 K, x1 = 0.3046): 1089.4 ± 1.2 m/s | speed of sound (308.15 K, x1 = 0.4001): 1075.9 ± 1.2 m/s | speed of sound (308.15 K, x1 = 0.4535): 1068.2 ± 1.2 m/s | speed of sound (308.15 K, x1 = 0.4947): 1062.3 ± 1.2 m/s | speed of sound (308.15 K, x1 = 0.5442): 1055.3 ± 1.2 m/s | speed of sound (308.15 K, x1 = 0.5996): 1047.5 ± 1.2 m/s | speed of sound (308.15 K, x1 = 0.6916): 1034.3 ± 1.2 m/s | speed of sound (308.15 K, x1 = 0.8001): 1018.6 ± 1.2 m/s | speed of sound (308.15 K, x1 = 0.9007): 1004.2 ± 1.1 m/s | speed of sound (308.15 K, x1 = 0.9487): 997.3 ± 1.1 m/s | mass density (308.15 K, x1 = 0.0681): 691.79 ± 0.19 kg/m3 | mass density (308.15 K, x1 = 0.1226): 692.93 ± 0.19 kg/m3 | mass density (308.15 K, x1 = 0.2056): 694.83 ± 0.19 kg/m3 | mass density (308.15 K, x1 = 0.3046): 697.3 ± 0.18 kg/m3 | mass density (308.15 K, x1 = 0.4001): 699.96 ± 0.18 kg/m3 | mass density (308.15 K, x1 = 0.4535): 701.56 ± 0.18 kg/m3 | mass density (308.15 K, x1 = 0.4947): 702.84 ± 0.18 kg/m3 | mass density (308.15 K, x1 = 0.5442): 704.48 ± 0.18 kg/m3 | mass density (308.15 K, x1 = 0.5996): 706.42 ± 0.18 kg/m3 | mass density (308.15 K, x1 = 0.6916): 709.89 ± 0.18 kg/m3 | mass density (308.15 K, x1 = 0.8001): 714.49 ± 0.17 kg/m3 | mass density (308.15 K, x1 = 0.9007): 719.35 ± 0.17 kg/m3 | mass density (308.15 K, x1 = 0.9487): 721.86 ± 0.17 kg/m3

— the NIST ThermoML archive (doi:10.1021/je8004613)
